In ChEMBL document CHEMBL5131429, “Synthesis and antifungal evaluation of phenol-derived bis(indolyl)methanes combined with FLC against Candida albicans” (Bioorg Med Chem Lett, 2022):
Values after ≈ are worked out from the molar mass of the structure shown.

Key:
Assay type in all cases: functional
Candida albicans [1] = experiment: Antifungal activity against Candida albicans SC5314 by microdilution method
Candida albicans [2] = experiment: Antifungal activity against Candida albicans CA23 by microdilution method
Candida albicans [3] = experiment: Antifungal activity against Candida albicans SC5314 in presence of fluconazole by microdilution method
Candida albicans [4] = experiment: Antifungal activity against Candida albicans CA23 in presence of fluconazole by microdilution method
Candida albicans [5] = experiment: Antifungal activity against Candida albicans SC5314 assessed as fractional inhibitory concentration index in presence of fluconazole by microdilution method
Candida albicans [6] = experiment: Antifungal activity against Candida albicans CA23 assessed as fractional inhibitory concentration index in presence of fluconazole by microdilution method

Compound	MIC80 (Candida albicans [1]) [µg/mL]	MIC80 (Candida albicans [2]) [µg/mL]	MIC80 (Candida albicans [3]) [µg/mL]	MIC80 (Candida albicans [4]) [µg/mL]	fractional inhibitory concentration index (FICI) (Candida albicans [5])	fractional inhibitory concentration index (FICI) (Candida albicans [6])
CN(C)c1ccc(C(c2c[nH]c3ccccc23)c2c[nH]c3ccccc23)c(O)c1	0.37 (≈ 0.97 µM)	24 (≈ 62.8 µM)	0.94	5.76	2.57	0.24
Oc1cc(F)c(Br)cc1C(c1c[nH]c2ccccc12)c1c[nH]c2ccccc12	4.97 (≈ 11.4 µM)	> 200	0.82	5.95	0.2	0.02
COc1ccc(C(c2c[nH]c3ccccc23)c2c[nH]c3ccccc23)c(O)c1	1.85 (≈ 5.02 µM)	32.7 (≈ 88.9 µM)	1.01	5.79	0.58	0.18
Oc1ccc(O)c(C(c2c[nH]c3ccccc23)c2c[nH]c3ccccc23)c1	32.1 (≈ 90.5 µM)	5.91 (≈ 16.7 µM)	1.05	5.7	0.07	0.98
Oc1ccc(Br)cc1C(c1c[nH]c2ccccc12)c1c[nH]c2ccccc12	> 200	> 200	3.58	5.81	0.13	0.02
Oc1ccccc1C(c1c[nH]c2ccccc12)c1c[nH]c2ccccc12	> 200	> 200	3.22	6.07	0.12	0.03
Oc1ccc(F)cc1C(c1c[nH]c2ccccc12)c1c[nH]c2ccccc12	> 200	> 200	0.98	5.92	0.04	0.02
Cc1ccc(O)c(C(c2c[nH]c3ccccc23)c2c[nH]c3ccccc23)c1	23.2 (≈ 65.9 µM)	> 200	4.28	5.83	0.33	0.02
Oc1cc(F)ccc1C(c1c[nH]c2ccccc12)c1c[nH]c2ccccc12	> 200	> 200	15.5	7.4	0.58	0.02
